Laboratory results taken from patent US10239887B2, “Positive allosteric modulators of the muscarinic acetylcholine receptor M4” (Vanderbilt University, priority 2016, dated 2019).

Biological target: T1, human mAChR M4 (Homo sapiens, UniProt P08173)
T1 sequence (P08173 1-479): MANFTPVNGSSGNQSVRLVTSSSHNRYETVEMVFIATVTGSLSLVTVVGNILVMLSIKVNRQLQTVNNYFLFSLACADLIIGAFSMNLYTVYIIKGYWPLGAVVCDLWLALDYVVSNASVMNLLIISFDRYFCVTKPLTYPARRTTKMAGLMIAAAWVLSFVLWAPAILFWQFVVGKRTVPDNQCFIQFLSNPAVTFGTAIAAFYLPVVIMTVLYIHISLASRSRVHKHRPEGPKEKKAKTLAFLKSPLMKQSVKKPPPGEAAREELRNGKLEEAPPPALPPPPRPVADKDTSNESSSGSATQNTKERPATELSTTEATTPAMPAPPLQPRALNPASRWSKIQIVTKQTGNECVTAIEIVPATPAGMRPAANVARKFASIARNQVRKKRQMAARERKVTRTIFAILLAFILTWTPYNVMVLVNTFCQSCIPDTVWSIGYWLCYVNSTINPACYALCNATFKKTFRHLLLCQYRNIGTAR
Assay: mAChR M4 cell-based functional assay (calcium flux), human M4
Conditions: Table 10; for EC50: Human M4 EC50 (nM), calcium flux, PAM activity with EC20 acetylcholine; for Emax: % ACh maximum at 30 μM

Cc1nnc2sc3c(NCc4ccc(C(C)(C)O)c(F)c4)ncnc3c2c1C [Compound 112, 2-[4-[[(3,4-dimethylpyrimido [4′,5′:4,5]thieno[2,3-c]pyridazin-8-yl)amino]methyl]-2-fluoro-phenyl]propan-2-ol]
EC50: 255 nM
Emax: 74.6%

Cc1nnc2sc3c(NCc4ccc(C(C)(O)C(F)(F)F)cc4)ncnc3c2c1C (stereo not drawn) [Compound 113, 2-[4-[[(3,4-dimethylpyrimido [4′,5′:4,5]thieno[2,3-c]pyridazin-8-yl)amino]methyl]phenyl]-1,1,1-trifluoro-propan-2-ol]
Emax: 73.8%

Cc1nnc2sc3c(NCc4ccc(C5(O)CCC5)cc4)ncnc3c2c1C [Compound 114, 1-[4-[[(3,4-dimethylpyrimido [4′,5′:4,5]thieno[2,3-c]pyridazin-8-yl)amino]methyl]phenyl]cyclobutanol]
EC50: 127 nM
Emax: 69.4%

CCC(C)(O)c1ccc(CNc2ncnc3c2sc2nnc(C)c(C)c23)c(F)c1 (stereo not drawn) [Compound 115, 2-[4-[[(3,4-dimethylpyrimido [4′,5′:4,5]thieno[2,3-c]pyridazin-8-yl)amino]methyl]-3-fluoro-phenyl]butan-2-ol]
EC50: 916 nM
Emax: 72.3%

CCC(C)(O)c1ccc(CNc2ncnc3c2sc2nnc(C)c(C)c23)cc1 (stereo not drawn) [Compound 116, 2-[4-[[(3,4-dimethylpyrimido [4′,5′:4,5]thieno[2,3-c]pyridazin-8-yl)amino]methyl]phenyl]butan-2-ol]
EC50: 151 nM
Emax: 50%

Cc1nnc2sc3c(NCc4ccc(CN5CCCC5C(C)(C)O)cc4)ncnc3c2c1C (stereo not drawn) [Compound 117, 2-[1-[[4-[[(3,4-dimethylpyrimido [4′,5′:4,5]thieno[2,3-c]pyridazin-8-yl)amino]methyl]phenyl]methyl]pyrrolidin-2-yl]propan-2-ol]
EC50: 49.1 nM
Emax: 108%

Cc1nnc2sc3c(NCc4ccc(N5CCNCC5)cc4)ncnc3c2c1C [Compound 118, 3,4-dimethyl-N-[(4-piperazin-1-ylphenyl)methyl]pyrimido [4′,5′:4,5]thieno[2,3-c] pyridazin-8-amine]
EC50: 69 nM
Emax: 101%

Cc1nnc2sc3c(NC4CC4c4ccc(F)c(F)c4)ncnc3c2c1C (stereo not drawn) [Compound 119, N-[2-(3,4-difluorophenyl)cyclopropyl]-3,4-dimethyl-pyrimido [4′,5′:4,5]thieno[2,3-c] pyridazin-8-amine]
EC50: 941 nM
Emax: 98.4%

COCCN1CCN(c2ccc(CNc3ncnc4c3sc3nnc(C)c(C)c34)cc2)CC1 [Compound 120, N-[[4-[4-(2-methoxyethyl)piperazin-1-yl]phenyl]methyl]-3,4-dimethyl-pyrimido [4′,5′:4,5]thieno[2,3-c] pyridazin-8-amine]
EC50: 226 nM
Emax: 100%

COc1cc(F)c(CNc2ncnc3c2sc2nnc(C)c(C)c23)c(F)c1 [Compound 121, N-[(2,6-difluoro-4-methoxy-phenyl)methyl]-3,4-dimethyl-pyrimido [4′,5′:4,5]thieno[2,3-c] pyridazin-8-amine]
EC50: 579 nM
Emax: 100%

Cc1nnc2sc3c(NCc4ccc(C(=O)N5CCCC5)cc4)ncnc3c2c1C [Compound 122, [4-[[(3,4-dimethylpyrimido [4′,5′:4,5]thieno[2,3-c]pyridazin-8-yl)amino]methyl]phenyl]-pyrrolidin-1-yl-methanone]
EC50: 482 nM
Emax: 83.7%

Cc1nnc2sc3c(NCc4ccc(C(=O)N5CCOCC5)cc4)ncnc3c2c1C [Compound 123, [4-[[(3,4-dimethylpyrimido [4′,5′:4,5]thieno[2,3-c]pyridazin-8-yl)amino]methyl]phenyl]-morpholino-methanone]
EC50: 548 nM
Emax: 87.2%

Cc1nnc2sc3c(NCc4ccc(C(=O)N5CC6(COC6)C5)cc4)ncnc3c2c1C [Compound 124, [4-[[(3,4-dimethylpyrimido [4′,5′:4,5]thieno[2,3-c]pyridazin-8-yl)amino]methyl]phenyl]-(2-oxa-6-azaspiro[3.3]heptan-6-yl)methanone]
EC50: 288 nM
Emax: 84.8%

Cc1nnc2sc3c(NCc4ccc(C(=O)N5CCCCC5)cc4)ncnc3c2c1C [Compound 125, [4-[[(3,4-dimethylpyrimido [4′,5′:4,5]thieno[2,3-c]pyridazin-8-yl)amino]methyl]phenyl]-(1-piperidyl)methanone]
EC50: 574 nM
Emax: 93.1%

Cc1nnc2sc3c(NCc4ccc(C(=O)N5CC6CC6C5)cc4)ncnc3c2c1C (stereo not drawn) [Compound 126, 3-azabicyclo[3.1.0] hexan-3-yl-[4-[[(3,4-dimethylpyrimido [4′,5′:4,5]thieno[2,3-c]pyridazin-8-yl)amino]methyl]phenyl] methanone]
EC50: 481 nM
Emax: 84.2%

COCC1CN(C(=O)c2ccc(CNc3ncnc4c3sc3nnc(C)c(C)c34)cc2)C1 [Compound 127, [4-[[(3,4-dimethylpyrimido [4′,5′:4,5]thieno[2,3-c]pyridazin-8-yl)amino]methyl]phenyl]-[3-(methoxymethyl)azetidin-1-yl] methanone]
EC50: 463 nM
Emax: 88.4%

Cc1nnc2sc3c(NCc4ccc(C(=O)N5CC[C@H](F)C5)cc4)ncnc3c2c1C [Compound 128, [4-[[(3,4-dimethylpyrimido [4′,5′:4,5]thieno[2,3-c]pyridazin-8-yl)amino]methyl]phenyl]-[(3S)-3-fluoropyrrolidin-1-yl]methanone]
EC50: 529 nM
Emax: 92%

Cc1nnc2sc3c(NCc4ccc(C(=O)N5CC[C@@H](F)C5)cc4)ncnc3c2c1C [Compound 129, [4-[[(3,4-dimethylpyrimido [4′,5′:4,5]thieno[2,3-c]pyridazin-8-yl)amino]methyl]phenyl]-[(3R)-3-fluoropyrrolidin-1-yl]methanone]
EC50: 446 nM
Emax: 90.6%

Cc1nnc2sc3c(NCc4ccc(C(=O)N5CCC(F)(F)CC5)cc4)ncnc3c2c1C [Compound 130, (4,4-difluoro-1-piperidyl)-[4-[[(3,4-dimethylpyrimido [4′,5′:4,5]thieno[2,3-c]pyridazin-8-yl)amino]methyl]phenyl]methanone]
EC50: 724 nM
Emax: 93.2%

Cc1nnc2sc3c(NCc4ccc(C(=O)N5CCC5)cc4)ncnc3c2c1C [Compound 131, azetidin-1-yl-[4-[[(3,4-dimethylpyrimido [4′,5′:4,5]thieno[2,3-c]pyridazin-8-yl)amino]methyl]phenyl]methanone]
EC50: 276 nM
Emax: 88.4%

Cc1nnc2sc3c(NCc4ccc(C(=O)N(C)C5CC5)cc4)ncnc3c2c1C [Compound 132, N-cyclopropyl-4-[[(3,4-dimethylpyrimido [4′,5′:4,5]thieno[2,3-c]pyridazin-8-yl)amino]methyl]-N-methyl-benzamide]
EC50: 309 nM
Emax: 90.4%

Cc1nnc2sc3c(NCc4ccc(C(=O)NC5CC5)cc4)ncnc3c2c1C [Compound 133, N-cyclopropyl-4-[[(3,4-dimethylpyrimido [4′,5′:4,5]thieno[2,3-c]pyridazin-8-yl)amino]methyl]benzamide]
EC50: 100 nM
Emax: 86%

Cc1nnc2sc3c(NCc4ccc(C(=O)N5CCC(F)(F)C5)cc4)ncnc3c2c1C [Compound 134, (3,3-difluoropyrrolidin-1-yl)-[4-[[(3,4-dimethylpyrimido [4′,5′:4,5]thieno[2,3-c]pyridazin-8-yl)amino]methyl]phenyl]methanone]
EC50: 469 nM
Emax: 91.8%

COc1ccc(CNc2ncnc3c2sc2nnc(C)c(C)c23)cc1 [Compound 135, N-[(4-methoxyphenyl)methyl]-3,4-dimethyl-pyrimido[4′,5′:4,5]thieno [2,3-c]pyridazin-8-amine]
EC50: 139 nM
Emax: 87.8%

COc1c(F)cc(CNc2ncnc3c2sc2nnc(C)c(C)c23)cc1F [Compound 136, N-[(3,5-difluoro-4-methoxy-phenyl)methyl]-3,4-dimethyl-pyrimido [4′,5′:4,5]thieno[2,3-c] pyridazin-8-amine]
EC50: 388 nM
Emax: 96.8%

Cc1nnc2sc3c(N(C)Cc4ccc(C(C)(C)O)cc4)ncnc3c2c1C [Compound 137, 2-[4-[[(3,4-dimethylpyrimido [4′,5′:4,5]thieno[2,3-c]pyridazin-8-yl)-methyl-amino]methyl]phenyl] propan-2-ol]
EC50: 222 nM
Emax: 80.6%

Cc1nnc2sc3c(NCC45CC(C(C)(C)O)(C4)C5)ncnc3c2c1C [Compound 138, 2-[1-[[(3,4-dimethylpyrimido [4′,5′:4,5]thieno[2,3-c]pyridazin-8-yl)amino]methyl]-3-bicyclo[1.1.1]pentanyl]propan-2-ol]
EC50: 3090 nM
Emax: 85%

Cc1nnc2sc3c(NC45CC(F)(C4)C5)ncnc3c2c1C [Compound 139, N-(3-fluoro-1-bicyclo [1.1.1]pentanyl)-3,4-dimethyl-pyrimido [4′,5′:4,5]thieno[2,3-c]pyridazin-8-amine]
EC50: 422 nM
Emax: 67.6%

COC(=O)C12CC(CNc3ncnc4c3sc3nnc(C)c(C)c34)(C1)C2 [Compound 140, methyl 1-[[(3,4-dimethylpyrimido [4′,5′:4,5]thieno[2,3-c]pyridazin-8-yl)amino]methyl]bicyclo[1.1.1] pentane-3-carboxylate]
EC50: 1240 nM
Emax: 80.3%
